Experimental data as given in US6040149A, “Assay for identifying agents which act on the ceramide-activated protein kinase, kinase suppressor of ras, and methods of using said agents” (priority 1997, dated 2000).

What was measured:
Raf-1 = Raf-1 phosphorylation in vitro by renatured CAP kinase; assay type: biochemical, human (recombinant Raf-1); conditions: CAP kinase from TNF-stimulated HL-60 cells
From the text: The data represent one of five similar experiments.
The data represent one of four similar experiments.
The data represent one of three similar experiments.
CAP kinase was the only kinase to renature from HL-60 cell membranes and that this activity was exclusively membrane-bound, since no 100-110 kDa activity could be renatured from cytosolic fractions. […] Conditions for CAP kinase activity were optimized previously using myelin basic protein (MBP) or a peptide derived from the amino acid sequence surrounding Thr669 of the epidermal growth factor receptor as substrates.
FIG. 17A--HL-60 cells were incubated in serum-free RPMI [RPMI containing 16 mg/ml serine, 8.4 mg/ml asparagine, 16.7 mg/ml glutamine, 25 mM HEPES, pH 7.4 and 0.5 mg/ml each of insulin and transferrin] at 1×106 ml^-1 for 2 hr, followed by stimulation with TNF (1 nM) for 20 min. […] Centrifugation for 5 min at 700×g yielded a post-nuclear supernate from which microsomal membranes were prepared by centrifugation at 250,000×g for 30 min. Microsomal membranes were resuspended into homogenizing buffer and proteins (30×10^6 cell equivalents/lane)were resolved on a 7.5% SDS-polyacrylamide gel. CAP kinase was renatured as described by Liu et al.. […]

KSR = target: T1, KSR (Mus musculus, UniProt Q61097); test: KSR autophosphorylation after treatment of COS-7 cells expressing KSR; assay type: cell-based, mouse (KSR expressed in COS-7 cells); conditions: TNFα 10 nM
T1 sequence (Q61097 1-873): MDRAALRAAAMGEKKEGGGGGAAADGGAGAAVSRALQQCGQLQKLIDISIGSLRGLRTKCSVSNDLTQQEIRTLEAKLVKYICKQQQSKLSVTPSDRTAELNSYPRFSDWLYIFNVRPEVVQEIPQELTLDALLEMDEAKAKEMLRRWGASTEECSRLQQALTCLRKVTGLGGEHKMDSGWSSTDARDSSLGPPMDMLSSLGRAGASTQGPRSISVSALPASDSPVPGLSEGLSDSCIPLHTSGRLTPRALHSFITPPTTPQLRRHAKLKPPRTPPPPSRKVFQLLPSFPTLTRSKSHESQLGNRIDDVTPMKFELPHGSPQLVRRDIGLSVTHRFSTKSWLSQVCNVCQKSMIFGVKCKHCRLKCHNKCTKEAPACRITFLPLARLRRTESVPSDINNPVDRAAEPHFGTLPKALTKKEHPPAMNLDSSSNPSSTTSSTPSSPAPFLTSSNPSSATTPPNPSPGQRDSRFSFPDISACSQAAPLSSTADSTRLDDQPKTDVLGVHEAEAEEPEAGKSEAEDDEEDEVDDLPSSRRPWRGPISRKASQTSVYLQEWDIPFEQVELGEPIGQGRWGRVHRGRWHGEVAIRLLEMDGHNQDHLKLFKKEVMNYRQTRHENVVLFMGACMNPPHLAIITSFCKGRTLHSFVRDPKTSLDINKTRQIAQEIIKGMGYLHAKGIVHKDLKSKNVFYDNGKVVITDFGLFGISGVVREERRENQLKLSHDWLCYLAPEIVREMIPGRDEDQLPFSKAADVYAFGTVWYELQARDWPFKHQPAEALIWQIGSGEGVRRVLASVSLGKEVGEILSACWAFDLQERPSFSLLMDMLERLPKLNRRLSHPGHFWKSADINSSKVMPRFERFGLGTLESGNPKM
Procedure: FIG. 23A--COS-7 cells were transfected as in FIG. 22A and placed in serum-free medium. After 4 hours, cells were stimulated for 10 min with the ceramide analog, C2-ceramide (Biomol), at the concentrations indicated. Cells were lysed with NP-40 lysis buffer, and Flag-tagged KSR (0.8 mg protein for each point) was immunoprecipitated and assayed for autophosphorylation activity as described in Experimental Procedures. The autoradiogram was exposed for 1 hour. KSR is expressed at similar levels in each sample as monitored by Western blot (data not shown). Data represent one of three similar experiments.
COS-7 cells expressing Flag-tagged KSR were stimulated with 10 nM TNFα for the times indicated and lysed with NP-40 buffer as in FIG. 2A. […] The autoradiogram was exposed for 1 hour. Data represent one of three similar experiments.
KSR was immunoprecipitated as above from 0.8 mg NP-40 lysate protein with 40 μl agarose-conjugated anti-Flag antibody at 4° C. for 4 hrs or overnight. […] The reaction was stopped by addition of Laemmli sample buffer. Samples were resolved by 7.5% sodium dodecyl sulfate-polyacrylamide gel electrophoresis (SDS-PAGE) and autoradiographed.

## TNF-α
Raf-1
  enhancement of Raf-1 phosphorylation: 4-5 fold
KSR
  KSR autophosphorylating activity: time-dependent enhancement
KSR; autophosphorylation, Raf-1 phosphorylation and activation
  time to maximal effect: ≤ 20 min
